Experimental data from the kinase profiling compilation of Christmann-Franck et al. (2016).

Tests used:
Assay in all cases: radiometric filter-binding kinase assay
TAOK1 (human) = TAOK1 (human) (UniProt Q7L7X3)
CSNK2A1 (human) = CSNK2A1 (human) (UniProt P68400)
MARK3 (human) = MARK3 (human) (UniProt P27448)
MAPK8 (human) = MAPK8 (human) (UniProt P45983)
MAPK10 (human) = MAPK10 (human) (UniProt P53779)
[1] = tested on: SGK1 (human), O00141 [S422D]
MAPK13 (human) = MAPK13 (human) (UniProt O15264)
CLK2 (human) = CLK2 (human) (UniProt P49760)
MAPKAPK5 (human) = MAPKAPK5 (human) (UniProt Q8IW41)
AURKB (human) = AURKB (human) (UniProt Q96GD4)
Chain of AURKB (human) (Q96GD4 whole entry, looked up): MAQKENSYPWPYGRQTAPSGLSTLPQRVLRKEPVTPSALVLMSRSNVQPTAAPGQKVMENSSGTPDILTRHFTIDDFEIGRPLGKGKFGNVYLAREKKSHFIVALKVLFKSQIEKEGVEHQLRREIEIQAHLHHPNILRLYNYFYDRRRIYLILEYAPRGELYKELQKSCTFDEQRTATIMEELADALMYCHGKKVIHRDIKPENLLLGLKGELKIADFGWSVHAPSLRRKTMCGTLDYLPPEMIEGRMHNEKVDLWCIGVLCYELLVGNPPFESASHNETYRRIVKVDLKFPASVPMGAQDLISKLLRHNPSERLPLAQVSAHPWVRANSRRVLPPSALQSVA

FGFR1 (human) = FGFR1 (human) (UniProt P11362); details: compound 10.0 µM
IGF1R (human) = IGF1R (human) (UniProt P08069)
LCK (mouse) = details: accession and sequence are those of the human protein
EPHB2 (human) = EPHB2 (human) (UniProt P29323)
PIM3 (human) = PIM3 (human) (UniProt Q86V86)
GCK (human) = GCK (human) (UniProt Q12851)
CAMKK2 (human) = CAMKK2 (human) (UniProt Q96RR4)
ROCK2 (rat) = details: accession and sequence are those of the human protein
DYRK3 (human) = DYRK3 (human) (UniProt O43781)
BRSK2 (human) = BRSK2 (human) (UniProt Q8IWQ3)
Chain of BRSK2 (human) (Q8IWQ3 whole entry, looked up): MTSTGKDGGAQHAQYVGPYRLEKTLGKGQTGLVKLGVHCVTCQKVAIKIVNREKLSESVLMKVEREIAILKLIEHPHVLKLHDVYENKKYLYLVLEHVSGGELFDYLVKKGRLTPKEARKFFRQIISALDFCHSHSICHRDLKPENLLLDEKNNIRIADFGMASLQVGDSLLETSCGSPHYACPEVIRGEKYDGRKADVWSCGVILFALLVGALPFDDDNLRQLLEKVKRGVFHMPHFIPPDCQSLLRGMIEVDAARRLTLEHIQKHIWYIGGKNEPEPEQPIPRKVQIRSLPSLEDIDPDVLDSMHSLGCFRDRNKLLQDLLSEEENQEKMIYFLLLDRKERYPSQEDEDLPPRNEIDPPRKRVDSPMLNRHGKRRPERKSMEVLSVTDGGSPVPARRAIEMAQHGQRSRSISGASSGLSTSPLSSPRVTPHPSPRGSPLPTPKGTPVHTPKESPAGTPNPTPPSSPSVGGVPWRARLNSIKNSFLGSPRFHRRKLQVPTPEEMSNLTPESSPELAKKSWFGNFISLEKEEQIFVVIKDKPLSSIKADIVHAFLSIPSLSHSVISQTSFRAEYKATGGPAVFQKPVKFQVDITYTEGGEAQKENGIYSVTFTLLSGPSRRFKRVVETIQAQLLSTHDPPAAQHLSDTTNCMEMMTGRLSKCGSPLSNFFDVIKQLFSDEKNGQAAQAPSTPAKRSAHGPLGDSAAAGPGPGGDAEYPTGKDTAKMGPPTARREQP

CHEK1 (human) = CHEK1 (human) (UniProt O14757)
YES1 (human) = YES1 (human) (UniProt P07947)
DAPK1 (human) = DAPK1 (human) (UniProt P53355)
Chain of DAPK1 (human) (P53355 whole entry, looked up): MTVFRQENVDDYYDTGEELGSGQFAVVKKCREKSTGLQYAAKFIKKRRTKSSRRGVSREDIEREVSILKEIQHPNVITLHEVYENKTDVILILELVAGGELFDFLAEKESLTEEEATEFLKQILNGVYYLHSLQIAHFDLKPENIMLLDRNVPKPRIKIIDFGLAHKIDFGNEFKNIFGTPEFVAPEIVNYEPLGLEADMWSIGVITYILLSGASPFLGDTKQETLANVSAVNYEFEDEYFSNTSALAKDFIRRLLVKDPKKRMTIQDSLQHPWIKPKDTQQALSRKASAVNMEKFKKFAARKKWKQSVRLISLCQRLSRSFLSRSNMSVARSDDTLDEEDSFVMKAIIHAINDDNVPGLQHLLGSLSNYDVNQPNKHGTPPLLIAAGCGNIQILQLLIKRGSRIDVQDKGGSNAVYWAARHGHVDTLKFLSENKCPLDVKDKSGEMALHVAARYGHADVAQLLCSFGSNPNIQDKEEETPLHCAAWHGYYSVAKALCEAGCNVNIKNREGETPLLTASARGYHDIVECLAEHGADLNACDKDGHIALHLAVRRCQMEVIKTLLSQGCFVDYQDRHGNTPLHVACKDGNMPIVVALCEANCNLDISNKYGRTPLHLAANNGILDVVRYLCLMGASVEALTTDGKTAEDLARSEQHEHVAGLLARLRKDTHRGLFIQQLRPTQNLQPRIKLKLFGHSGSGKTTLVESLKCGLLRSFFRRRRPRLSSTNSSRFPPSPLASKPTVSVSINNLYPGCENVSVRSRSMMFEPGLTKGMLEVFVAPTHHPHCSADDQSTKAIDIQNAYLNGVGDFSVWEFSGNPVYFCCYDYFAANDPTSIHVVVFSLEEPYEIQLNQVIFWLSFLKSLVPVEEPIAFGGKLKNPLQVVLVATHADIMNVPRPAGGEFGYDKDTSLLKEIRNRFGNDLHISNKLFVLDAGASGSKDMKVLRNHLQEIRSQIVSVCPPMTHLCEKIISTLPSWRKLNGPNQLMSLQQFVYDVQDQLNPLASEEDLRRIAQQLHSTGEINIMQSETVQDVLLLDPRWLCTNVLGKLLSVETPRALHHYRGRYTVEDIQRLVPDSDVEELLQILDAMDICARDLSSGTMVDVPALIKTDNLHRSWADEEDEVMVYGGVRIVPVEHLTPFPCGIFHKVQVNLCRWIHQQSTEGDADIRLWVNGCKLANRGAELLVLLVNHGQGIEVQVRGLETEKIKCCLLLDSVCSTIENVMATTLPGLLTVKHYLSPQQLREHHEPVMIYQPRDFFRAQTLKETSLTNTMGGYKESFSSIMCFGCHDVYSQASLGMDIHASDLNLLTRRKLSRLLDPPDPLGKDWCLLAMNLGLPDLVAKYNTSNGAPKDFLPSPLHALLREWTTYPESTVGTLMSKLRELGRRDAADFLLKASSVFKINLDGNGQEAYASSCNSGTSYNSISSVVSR

HIPK2 (human) = HIPK2 (human) (UniProt Q9H2X6)
Chain of HIPK2 (human) (Q9H2X6 whole entry, looked up): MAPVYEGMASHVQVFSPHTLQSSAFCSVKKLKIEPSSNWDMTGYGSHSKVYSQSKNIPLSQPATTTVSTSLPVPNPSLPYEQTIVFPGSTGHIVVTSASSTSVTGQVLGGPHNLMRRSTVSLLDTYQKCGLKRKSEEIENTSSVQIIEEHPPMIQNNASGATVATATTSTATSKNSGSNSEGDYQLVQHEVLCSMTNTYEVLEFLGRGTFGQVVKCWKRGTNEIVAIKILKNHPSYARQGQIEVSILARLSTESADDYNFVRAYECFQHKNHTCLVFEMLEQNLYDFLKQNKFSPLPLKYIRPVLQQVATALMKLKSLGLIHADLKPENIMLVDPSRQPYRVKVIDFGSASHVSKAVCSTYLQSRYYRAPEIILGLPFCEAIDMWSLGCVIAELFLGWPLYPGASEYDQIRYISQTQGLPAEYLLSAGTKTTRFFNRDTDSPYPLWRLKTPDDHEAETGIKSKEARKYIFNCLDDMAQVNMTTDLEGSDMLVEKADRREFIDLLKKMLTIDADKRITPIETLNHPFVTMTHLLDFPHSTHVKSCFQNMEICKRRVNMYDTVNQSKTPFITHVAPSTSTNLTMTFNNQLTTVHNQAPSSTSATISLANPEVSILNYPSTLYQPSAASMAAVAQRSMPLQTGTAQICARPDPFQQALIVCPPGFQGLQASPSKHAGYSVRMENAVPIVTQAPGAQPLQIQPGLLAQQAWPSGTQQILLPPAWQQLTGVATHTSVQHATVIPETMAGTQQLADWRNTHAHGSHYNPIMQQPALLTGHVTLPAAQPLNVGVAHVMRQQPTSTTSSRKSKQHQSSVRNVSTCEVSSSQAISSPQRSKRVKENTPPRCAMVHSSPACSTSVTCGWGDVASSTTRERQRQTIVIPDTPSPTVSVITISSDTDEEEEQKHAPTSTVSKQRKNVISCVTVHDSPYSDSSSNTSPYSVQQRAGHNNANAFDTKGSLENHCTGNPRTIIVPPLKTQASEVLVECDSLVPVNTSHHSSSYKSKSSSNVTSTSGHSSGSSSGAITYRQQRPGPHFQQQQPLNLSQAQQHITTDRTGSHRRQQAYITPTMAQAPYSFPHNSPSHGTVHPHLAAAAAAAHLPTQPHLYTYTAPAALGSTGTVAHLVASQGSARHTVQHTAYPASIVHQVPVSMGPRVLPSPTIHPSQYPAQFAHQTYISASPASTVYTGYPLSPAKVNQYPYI

MAPK11 (human) = MAPK11 (human) (UniProt Q15759)
TBK1 (human) = TBK1 (human) (UniProt Q9UHD2)
DYRK1A (human) = DYRK1A (human) (UniProt Q13627)
[2] = tested on: PAK2 (human), Q13177 [T402E]
Chain of PAK2 (human), Q13177 [T402E] (Q13177 whole entry T402E, looked up): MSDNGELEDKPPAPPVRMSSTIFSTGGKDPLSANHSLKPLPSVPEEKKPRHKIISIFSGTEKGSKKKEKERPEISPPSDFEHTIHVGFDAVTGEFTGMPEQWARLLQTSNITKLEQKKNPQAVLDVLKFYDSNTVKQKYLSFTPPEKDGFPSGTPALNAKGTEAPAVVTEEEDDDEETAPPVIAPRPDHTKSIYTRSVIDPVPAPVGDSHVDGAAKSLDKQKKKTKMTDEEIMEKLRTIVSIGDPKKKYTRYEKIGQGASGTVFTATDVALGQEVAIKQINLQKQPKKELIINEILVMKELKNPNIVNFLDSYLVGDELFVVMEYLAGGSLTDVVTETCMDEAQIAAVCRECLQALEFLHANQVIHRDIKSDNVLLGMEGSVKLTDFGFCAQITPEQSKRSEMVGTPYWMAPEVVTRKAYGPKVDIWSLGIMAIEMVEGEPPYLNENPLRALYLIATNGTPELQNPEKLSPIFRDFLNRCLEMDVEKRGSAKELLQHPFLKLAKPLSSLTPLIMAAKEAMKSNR

CaMK1 (human) = CaMK1 (human) (UniProt Q14012)
Chain of CaMK1 (human) (Q14012 whole entry, looked up): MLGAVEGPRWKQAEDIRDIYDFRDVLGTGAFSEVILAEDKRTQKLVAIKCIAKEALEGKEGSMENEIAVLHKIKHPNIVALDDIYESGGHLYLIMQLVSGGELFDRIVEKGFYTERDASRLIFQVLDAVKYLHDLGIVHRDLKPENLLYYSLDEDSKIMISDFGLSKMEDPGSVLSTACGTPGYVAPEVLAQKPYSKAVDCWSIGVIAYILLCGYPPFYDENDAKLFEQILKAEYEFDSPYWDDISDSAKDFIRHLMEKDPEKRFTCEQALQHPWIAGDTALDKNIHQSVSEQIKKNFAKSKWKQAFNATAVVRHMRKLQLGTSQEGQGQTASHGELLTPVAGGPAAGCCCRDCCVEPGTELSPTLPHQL

SRPK1 (human) = SRPK1 (human) (UniProt Q96SB4)
MKNK1 (human) = MKNK1 (human) (UniProt Q9BUB5)
JAK2 JH1 JH2 (human) = JAK2 JH1 JH2 (human) (UniProt O60674)
HIPK1 (human) = HIPK1 (human) (UniProt Q86Z02)
STK3 (human) = STK3 (human) (UniProt Q13188); details: compound 10.0 µM
MINK1 (human) = MINK1 (human) (UniProt Q8N4C8); details: compound 10.0 µM

Chain of MAPK8 (human) (P45983 whole entry, looked up): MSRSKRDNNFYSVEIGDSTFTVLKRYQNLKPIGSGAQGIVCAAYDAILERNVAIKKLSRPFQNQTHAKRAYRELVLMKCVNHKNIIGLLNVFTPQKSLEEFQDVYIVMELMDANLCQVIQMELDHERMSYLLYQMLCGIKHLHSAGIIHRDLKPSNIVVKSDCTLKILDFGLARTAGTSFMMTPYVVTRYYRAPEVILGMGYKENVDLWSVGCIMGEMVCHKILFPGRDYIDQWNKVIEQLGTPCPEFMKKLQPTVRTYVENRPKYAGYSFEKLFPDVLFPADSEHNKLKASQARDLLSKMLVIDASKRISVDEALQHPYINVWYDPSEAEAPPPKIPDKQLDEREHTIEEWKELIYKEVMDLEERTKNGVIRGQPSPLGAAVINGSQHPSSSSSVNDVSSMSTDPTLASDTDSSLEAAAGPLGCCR

COC(=O)/C=C/C(=O)OC
residual activity (TAOK1 (human); compound 10.0 µM): 91%
residual activity (TAOK1 (human); compound 100.0 µM): 109%
residual activity (TAOK1 (human); compound 1000.0 µM): 123%
residual activity (CSNK2A1 (human); compound 10.0 µM): 98%
residual activity (CSNK2A1 (human); compound 100.0 µM): 95%
residual activity (CSNK2A1 (human); compound 1000.0 µM): 91%
residual activity (MARK3 (human); compound 100.0 µM): 108%
residual activity (MARK3 (human); compound 1000.0 µM): 132%
residual activity (MAPK8 (human); compound 10.0 µM): 99%
residual activity (MAPK8 (human); compound 100.0 µM): 92%
residual activity (MAPK8 (human); compound 1000.0 µM): 109%
residual activity (MAPK10 (human); compound 10.0 µM): 103%
residual activity (MAPK10 (human); compound 100.0 µM): 103%
residual activity (MAPK10 (human); compound 1000.0 µM): 100%
residual activity ([1]; compound 10.0 µM): 93%
residual activity ([1]; compound 100.0 µM): 96%
residual activity ([1]; compound 1000.0 µM): 100%
residual activity (MAPK13 (human); compound 10.0 µM): 92%
residual activity (MAPK13 (human); compound 100.0 µM): 102%
residual activity (CLK2 (human); compound 10.0 µM): 92%
residual activity (CLK2 (human); compound 100.0 µM): 100%
residual activity (CLK2 (human); compound 1000.0 µM): 101%
residual activity (MAPKAPK5 (human); compound 10.0 µM): 96%
residual activity (MAPKAPK5 (human); compound 100.0 µM): 92%
residual activity (MAPKAPK5 (human); compound 1000.0 µM): 94%
residual activity (AURKB (human); compound 10.0 µM): 90%
residual activity (AURKB (human); compound 100.0 µM): 102%
residual activity (AURKB (human); compound 1000.0 µM): 98%
residual activity (FGFR1 (human)): 85%
residual activity (IGF1R (human); compound 100.0 µM): 92%
residual activity (IGF1R (human); compound 1000.0 µM): 117%
residual activity (LCK (mouse); compound 10.0 µM): 74%
residual activity (LCK (mouse); compound 100.0 µM): 72%
residual activity (LCK (mouse); compound 1000.0 µM): 84%
residual activity (EPHB2 (human); compound 10.0 µM): 118%
residual activity (EPHB2 (human); compound 100.0 µM): 118%
residual activity (EPHB2 (human); compound 1000.0 µM): 120%
residual activity (PIM3 (human); compound 10.0 µM): 96%
residual activity (PIM3 (human); compound 100.0 µM): 106%
residual activity (PIM3 (human); compound 1000.0 µM): 92%
residual activity (GCK (human); compound 100.0 µM): 107%
residual activity (CAMKK2 (human); compound 100.0 µM): 101%
residual activity (CAMKK2 (human); compound 1000.0 µM): 93%
residual activity (ROCK2 (rat); compound 10.0 µM): 81%
residual activity (ROCK2 (rat); compound 100.0 µM): 89%
residual activity (ROCK2 (rat); compound 1000.0 µM): 98%
residual activity (DYRK3 (human); compound 10.0 µM): 105%
residual activity (DYRK3 (human); compound 1000.0 µM): 106%
residual activity (BRSK2 (human); compound 10.0 µM): 91%
residual activity (BRSK2 (human); compound 100.0 µM): 99%
residual activity (BRSK2 (human); compound 1000.0 µM): 108%
residual activity (CHEK1 (human); compound 100.0 µM): 93%
residual activity (CHEK1 (human); compound 1000.0 µM): 97%
residual activity (YES1 (human); compound 10.0 µM): 114%
residual activity (YES1 (human); compound 100.0 µM): 116%
residual activity (YES1 (human); compound 1000.0 µM): 118%
residual activity (DAPK1 (human); compound 10.0 µM): 99%
residual activity (DAPK1 (human); compound 100.0 µM): 102%
residual activity (DAPK1 (human); compound 1000.0 µM): 104%
residual activity (HIPK2 (human); compound 10.0 µM): 98%
residual activity (HIPK2 (human); compound 100.0 µM): 101%
residual activity (HIPK2 (human); compound 1000.0 µM): 94%
residual activity (MAPK11 (human); compound 10.0 µM): 111%
residual activity (MAPK11 (human); compound 1000.0 µM): 104%
residual activity (TBK1 (human); compound 10.0 µM): 89%
residual activity (TBK1 (human); compound 100.0 µM): 100%
residual activity (DYRK1A (human); compound 10.0 µM): 105%
residual activity (DYRK1A (human); compound 100.0 µM): 109%
residual activity (DYRK1A (human); compound 1000.0 µM): 113%
residual activity ([2]; compound 10.0 µM): 101%
residual activity ([2]; compound 100.0 µM): 104%
residual activity ([2]; compound 1000.0 µM): 86%
residual activity (CaMK1 (human); compound 10.0 µM): 88%
residual activity (CaMK1 (human); compound 100.0 µM): 96%
residual activity (CaMK1 (human); compound 1000.0 µM): 99%
residual activity (SRPK1 (human); compound 10.0 µM): 91%
residual activity (SRPK1 (human); compound 100.0 µM): 101%
residual activity (SRPK1 (human); compound 1000.0 µM): 103%
residual activity (MKNK1 (human); compound 10.0 µM): 101%
residual activity (MKNK1 (human); compound 100.0 µM): 103%
residual activity (MKNK1 (human); compound 1000.0 µM): 105%
residual activity (JAK2 JH1 JH2 (human); compound 10.0 µM): 100%
residual activity (JAK2 JH1 JH2 (human); compound 100.0 µM): 105%
residual activity (JAK2 JH1 JH2 (human); compound 1000.0 µM): 116%
residual activity (HIPK1 (human); compound 100.0 µM): 95%

CCOC(=O)c1ccc(N2NC(=O)/C(=C/c3ccc([N+](=O)[O-])o3)C2=O)cc1
residual activity (TAOK1 (human); compound 10.0 µM): 126%
residual activity (CSNK2A1 (human); compound 10.0 µM): 106%
residual activity (MARK3 (human); compound 10.0 µM): 84%
residual activity (MAPK8 (human); compound 10.0 µM): 117%
residual activity (MAPK10 (human); compound 10.0 µM): 79%
residual activity ([1]; compound 10.0 µM): 126%
residual activity (MAPK13 (human); compound 10.0 µM): 106%
residual activity (CLK2 (human); compound 10.0 µM): 126%
residual activity (MAPKAPK5 (human); compound 10.0 µM): 97%
residual activity (STK3 (human)): 122%
residual activity (AURKB (human); compound 10.0 µM): 102%
residual activity (FGFR1 (human)): 69%
residual activity (LCK (mouse); compound 10.0 µM): 121%
residual activity (EPHB2 (human); compound 10.0 µM): 81%
residual activity (PIM3 (human); compound 10.0 µM): 92%
residual activity (GCK (human); compound 10.0 µM): 96%
residual activity (CAMKK2 (human); compound 10.0 µM): 125%
residual activity (ROCK2 (rat); compound 10.0 µM): 91%
residual activity (DYRK3 (human); compound 10.0 µM): 55%
residual activity (BRSK2 (human); compound 10.0 µM): 42%
residual activity (CHEK1 (human); compound 10.0 µM): 164%
residual activity (YES1 (human); compound 10.0 µM): 110%
residual activity (DAPK1 (human); compound 10.0 µM): 112%
residual activity (MAPK11 (human); compound 10.0 µM): 113%
residual activity (TBK1 (human); compound 10.0 µM): 100%
residual activity (DYRK1A (human); compound 10.0 µM): 70%
residual activity ([2]; compound 10.0 µM): 91%
residual activity (CaMK1 (human); compound 10.0 µM): 102%
residual activity (MINK1 (human)): 73%
residual activity (SRPK1 (human); compound 10.0 µM): 76%
residual activity (MKNK1 (human); compound 10.0 µM): 110%
residual activity (JAK2 JH1 JH2 (human); compound 10.0 µM): 17%
residual activity (HIPK1 (human); compound 10.0 µM): 98%
